According to patent publication US10835533B2, “1 -((3S,4R)-4-(3-fluorophenyl)-1-(2-methoxyethyl)pyrrolidin-3-yl)-3-(4-methyl-3-(2-methylpyrimidin-5-yl)-1-phenyl-1H-pyrazol-5-yl)urea as a TrkA kinase inhibitor” (Array BioPharma Inc., priority 2014, dated 2020):

Legend:
Assay in all cases: KinaseProfiler kinase profiling
Format in all cases: biochemical
Details in all cases: 10 μM, ATP near Km
AKT3 = target: T1, AKT3 (Homo sapiens, UniProt Q9Y243)
T1 construct: purchased Millipore, Inc. (KinaseProfiler service)
Description: (§1) Compound 1 was tested for off-target kinase activity at a concentration of 10 μM by Millipore, Inc. in their KinaseProfiler™ service against all the kinases available in their full kinase panel. Compound 1 was run in duplicate at a concentration of ATP near the Km for each individual kinase according to Millipore's specifications. Data are reported as percent of control (POC) and are the average of the two replicates.

ALK4 = target: T2, ALK4 (Homo sapiens, UniProt P36896)
T2 construct: purchased Millipore, Inc. (KinaseProfiler service)
Description: as §1

ARK5 = target: T3, ARK5 (Homo sapiens, UniProt O60285)
T3 construct: purchased Millipore, Inc. (KinaseProfiler service)
Description: as §1

CAMK1 = target: T4, CAMK1 (Homo sapiens, UniProt Q14012)
T4 construct: purchased Millipore, Inc. (KinaseProfiler service)
Description: as §1

CDK5/p35 = target: T5, CDK5/p35 (Homo sapiens, UniProt Q00535)
T5 construct: purchased Millipore, Inc. (KinaseProfiler service)
Description: as §1

CK1_y = tested on: CK1_y
Description: as §1

CK1gamma2 = target: T6, CK1gamma2 (Homo sapiens, UniProt P78368)
T6 construct: purchased Millipore, Inc. (KinaseProfiler service)
Description: as §1

CK1gamma3 = target: T7, CK1gamma3 (Homo sapiens, UniProt Q9Y6M4)
T7 construct: purchased Millipore, Inc. (KinaseProfiler service)
Description: as §1

DAPK3 = target: T8, DAPK3 (Homo sapiens, UniProt O43293)
T8 construct: purchased Millipore, Inc. (KinaseProfiler service)
Description: as §1

DMPK = target: T9, DMPK (Homo sapiens, UniProt Q09013)
T9 construct: purchased Millipore, Inc. (KinaseProfiler service)
Description: as §1

ERK2 = target: T10, ERK2 (Homo sapiens, UniProt P28482)
T10 construct: purchased Millipore, Inc. (KinaseProfiler service)
Description: as §1

EphB2 = target: T11, EphB2 (Homo sapiens, UniProt P29323)
T11 construct: purchased Millipore, Inc. (KinaseProfiler service)
Description: as §1

GRK5 = target: T12, GRK5 (Homo sapiens, UniProt P34947)
T12 construct: purchased Millipore, Inc. (KinaseProfiler service)
Description: as §1

GSK3alpha = target: T13, GSK3alpha (Homo sapiens, UniProt P49840)
T13 construct: purchased Millipore, Inc. (KinaseProfiler service)
Description: as §1

HIPK2 = target: T14, HIPK2 (Homo sapiens, UniProt Q9H2X6)
T14 construct: purchased Millipore, Inc. (KinaseProfiler service)
Description: as §1

Hck = target: T15, Hck (Homo sapiens, UniProt P08631)
T15 construct: purchased Millipore, Inc. (KinaseProfiler service)
Description: as §1

IKKbeta = target: T16, IKKbeta (Homo sapiens, UniProt O14920)
T16 construct: purchased Millipore, Inc. (KinaseProfiler service)
Description: as §1

IR Activated = target: T17, IR Activated (Homo sapiens, UniProt P06213)
T17 construct: purchased Millipore, Inc. (KinaseProfiler service)
Description: as §1

IRAK4 = target: T18, IRAK4 (Homo sapiens, UniProt Q9NWZ3)
T18 construct: purchased Millipore, Inc. (KinaseProfiler service)
Description: as §1

KDR = target: T19, KDR (Homo sapiens, UniProt P35968)
T19 construct: purchased Millipore, Inc. (KinaseProfiler service)
Description: as §1

LKB1 = target: T20, LKB1 (Homo sapiens, UniProt Q15831)
T20 construct: purchased Millipore, Inc. (KinaseProfiler service)
Description: as §1

MAP4K2 = target: T21, MAP4K2 (Homo sapiens, UniProt Q12851)
T21 construct: purchased Millipore, Inc. (KinaseProfiler service)
Description: as §1

MST3 = target: T22, MST3 (Homo sapiens, UniProt Q9Y6E0)
T22 construct: purchased Millipore, Inc. (KinaseProfiler service)
Description: as §1

PAK4 = target: T23, PAK4 (Homo sapiens, UniProt O96013)
T23 construct: purchased Millipore, Inc. (KinaseProfiler service)
Description: as §1

PKCbetaI = target: T24, PKCbetaI (Homo sapiens, UniProt P05771)
T24 construct: purchased Millipore, Inc. (KinaseProfiler service)
Description: as §1

PKCeta = target: T25, PKCeta (Homo sapiens, UniProt P24723)
T25 construct: purchased Millipore, Inc. (KinaseProfiler service)
Description: as §1

Pim-3 = target: T26, Pim-3 (Homo sapiens, UniProt Q86V86)
T26 construct: purchased Millipore, Inc. (KinaseProfiler service)
Description: as §1

PrKX = target: T27, PrKX (Homo sapiens, UniProt P51817)
T27 construct: purchased Millipore, Inc. (KinaseProfiler service)
Description: as §1

RIPK2 = target: T28, RIPK2 (Homo sapiens, UniProt O43353)
T28 construct: purchased Millipore, Inc. (KinaseProfiler service)
Description: as §1

Ret = target: T29, Ret (Homo sapiens, UniProt P07949)
T29 construct: purchased Millipore, Inc. (KinaseProfiler service)
Description: as §1

Rsk1 = target: T30, Rsk1 (Homo sapiens, UniProt Q15418)
T30 construct: purchased Millipore, Inc. (KinaseProfiler service)
Description: as §1

Src = target: T31, Src (Homo sapiens, UniProt P12931)
T31 construct: purchased Millipore, Inc. (KinaseProfiler service)
Description: as §1

TAK1-TAB1 = target: T32, TAK1-TAB1 (Homo sapiens, UniProt O43318)
T32 construct: purchased Millipore, Inc. (KinaseProfiler service)
Description: as §1

TBK1 = target: T33, TBK1 (Homo sapiens, UniProt Q9UHD2)
T33 construct: purchased Millipore, Inc. (KinaseProfiler service)
Description: as §1

TLK2 = target: T34, TLK2 (Homo sapiens, UniProt Q86UE8)
T34 construct: purchased Millipore, Inc. (KinaseProfiler service)
Description: as §1

Txk = target: T35, Txk (Homo sapiens, UniProt P42681)
T35 construct: purchased Millipore, Inc. (KinaseProfiler service)
Description: as §1

ULK3 = target: T36, ULK3 (Homo sapiens, UniProt Q6PHR2)
T36 construct: purchased Millipore, Inc. (KinaseProfiler service)
Description: as §1

VRK2 = target: T37, VRK2 (Homo sapiens, UniProt Q86Y07)
T37 construct: purchased Millipore, Inc. (KinaseProfiler service)
Description: as §1

WNK2 = target: T38, WNK2 (Homo sapiens, UniProt Q9Y3S1)
T38 construct: purchased Millipore, Inc. (KinaseProfiler service)
Description: as §1

mTOR/FKBP12 = target: T39, mTOR/FKBP12 (Homo sapiens, UniProt P42345)
T39 construct: purchased Millipore, Inc. (KinaseProfiler service)
Description: as §1

p38gamma = target: T40, p38gamma (Homo sapiens, UniProt P53778)
T40 construct: purchased Millipore, Inc. (KinaseProfiler service)
Description: as §1

T29 sequence (P07949 29-1114): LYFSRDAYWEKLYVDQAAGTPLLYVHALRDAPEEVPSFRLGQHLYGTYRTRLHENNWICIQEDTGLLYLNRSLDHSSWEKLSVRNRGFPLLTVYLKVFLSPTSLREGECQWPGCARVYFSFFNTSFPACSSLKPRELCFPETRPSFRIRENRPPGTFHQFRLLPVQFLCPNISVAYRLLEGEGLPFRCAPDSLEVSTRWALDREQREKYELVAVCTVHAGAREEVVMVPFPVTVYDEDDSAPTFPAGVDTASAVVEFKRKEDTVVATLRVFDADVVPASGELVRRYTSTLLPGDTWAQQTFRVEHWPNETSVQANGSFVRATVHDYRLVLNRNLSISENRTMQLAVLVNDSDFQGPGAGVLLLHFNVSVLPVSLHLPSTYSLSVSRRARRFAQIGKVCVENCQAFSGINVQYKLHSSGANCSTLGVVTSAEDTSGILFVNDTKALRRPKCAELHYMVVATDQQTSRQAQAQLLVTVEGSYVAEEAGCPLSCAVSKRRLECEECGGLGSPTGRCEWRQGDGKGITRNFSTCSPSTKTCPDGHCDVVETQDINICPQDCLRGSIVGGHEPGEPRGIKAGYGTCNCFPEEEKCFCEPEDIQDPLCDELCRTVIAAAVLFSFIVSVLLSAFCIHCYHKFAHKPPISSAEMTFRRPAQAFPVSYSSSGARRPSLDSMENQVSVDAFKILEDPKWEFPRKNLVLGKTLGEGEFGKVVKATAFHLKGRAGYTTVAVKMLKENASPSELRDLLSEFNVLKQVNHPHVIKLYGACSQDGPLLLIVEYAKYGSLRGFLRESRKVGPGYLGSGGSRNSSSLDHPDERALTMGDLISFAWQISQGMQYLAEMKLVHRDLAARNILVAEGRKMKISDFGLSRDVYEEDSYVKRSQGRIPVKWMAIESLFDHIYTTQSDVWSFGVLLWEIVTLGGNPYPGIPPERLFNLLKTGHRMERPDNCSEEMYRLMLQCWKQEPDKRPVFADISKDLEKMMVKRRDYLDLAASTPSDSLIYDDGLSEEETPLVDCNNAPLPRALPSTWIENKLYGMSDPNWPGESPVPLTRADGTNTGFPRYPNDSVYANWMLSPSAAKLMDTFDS
T7 sequence (Q9Y6M4 whole entry): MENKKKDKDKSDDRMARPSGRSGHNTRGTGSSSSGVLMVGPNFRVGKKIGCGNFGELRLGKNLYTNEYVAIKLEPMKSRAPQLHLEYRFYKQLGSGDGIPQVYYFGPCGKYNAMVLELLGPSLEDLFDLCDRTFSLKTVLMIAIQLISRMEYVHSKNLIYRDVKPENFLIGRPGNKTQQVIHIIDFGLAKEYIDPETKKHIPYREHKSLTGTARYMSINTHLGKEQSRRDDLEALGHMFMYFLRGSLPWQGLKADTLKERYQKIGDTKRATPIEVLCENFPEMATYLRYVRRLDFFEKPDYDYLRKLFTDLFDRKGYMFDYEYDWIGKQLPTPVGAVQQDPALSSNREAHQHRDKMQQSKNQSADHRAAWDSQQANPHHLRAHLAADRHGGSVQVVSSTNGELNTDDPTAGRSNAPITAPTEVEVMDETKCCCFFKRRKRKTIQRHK
T13 sequence (P49840 whole entry): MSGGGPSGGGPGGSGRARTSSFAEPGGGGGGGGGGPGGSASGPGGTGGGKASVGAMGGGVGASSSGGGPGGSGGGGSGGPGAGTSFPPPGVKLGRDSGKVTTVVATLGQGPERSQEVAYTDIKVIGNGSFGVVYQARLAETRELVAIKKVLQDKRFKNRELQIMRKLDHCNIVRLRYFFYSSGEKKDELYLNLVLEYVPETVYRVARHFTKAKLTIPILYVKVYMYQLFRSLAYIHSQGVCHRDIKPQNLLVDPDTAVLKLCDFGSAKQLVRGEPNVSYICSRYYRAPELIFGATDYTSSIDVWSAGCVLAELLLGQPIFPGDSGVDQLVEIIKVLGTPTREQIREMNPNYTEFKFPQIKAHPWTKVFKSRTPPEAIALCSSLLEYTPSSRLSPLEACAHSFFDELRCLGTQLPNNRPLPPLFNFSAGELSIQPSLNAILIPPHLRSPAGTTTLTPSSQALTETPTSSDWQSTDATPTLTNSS
T30 sequence (Q15418 whole entry): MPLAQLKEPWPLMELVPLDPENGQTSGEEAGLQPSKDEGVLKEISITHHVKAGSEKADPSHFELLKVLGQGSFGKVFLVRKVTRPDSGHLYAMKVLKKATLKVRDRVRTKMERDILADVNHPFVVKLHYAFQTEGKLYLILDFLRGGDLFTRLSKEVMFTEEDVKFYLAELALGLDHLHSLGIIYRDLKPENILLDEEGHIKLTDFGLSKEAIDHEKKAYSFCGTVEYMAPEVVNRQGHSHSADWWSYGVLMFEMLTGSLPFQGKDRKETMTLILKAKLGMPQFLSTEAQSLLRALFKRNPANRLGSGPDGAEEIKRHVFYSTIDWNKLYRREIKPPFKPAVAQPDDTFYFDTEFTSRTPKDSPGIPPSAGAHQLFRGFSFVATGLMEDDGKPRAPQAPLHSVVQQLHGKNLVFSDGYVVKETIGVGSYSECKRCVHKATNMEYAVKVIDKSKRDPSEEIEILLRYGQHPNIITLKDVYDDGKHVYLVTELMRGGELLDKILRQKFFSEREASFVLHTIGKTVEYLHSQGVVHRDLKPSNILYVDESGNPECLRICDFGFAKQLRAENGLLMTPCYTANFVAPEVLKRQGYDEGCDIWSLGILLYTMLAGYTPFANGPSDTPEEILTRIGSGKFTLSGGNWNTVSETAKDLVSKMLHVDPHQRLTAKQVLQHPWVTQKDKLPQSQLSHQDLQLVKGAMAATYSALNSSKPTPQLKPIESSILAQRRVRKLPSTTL
T20 sequence (Q15831 whole entry): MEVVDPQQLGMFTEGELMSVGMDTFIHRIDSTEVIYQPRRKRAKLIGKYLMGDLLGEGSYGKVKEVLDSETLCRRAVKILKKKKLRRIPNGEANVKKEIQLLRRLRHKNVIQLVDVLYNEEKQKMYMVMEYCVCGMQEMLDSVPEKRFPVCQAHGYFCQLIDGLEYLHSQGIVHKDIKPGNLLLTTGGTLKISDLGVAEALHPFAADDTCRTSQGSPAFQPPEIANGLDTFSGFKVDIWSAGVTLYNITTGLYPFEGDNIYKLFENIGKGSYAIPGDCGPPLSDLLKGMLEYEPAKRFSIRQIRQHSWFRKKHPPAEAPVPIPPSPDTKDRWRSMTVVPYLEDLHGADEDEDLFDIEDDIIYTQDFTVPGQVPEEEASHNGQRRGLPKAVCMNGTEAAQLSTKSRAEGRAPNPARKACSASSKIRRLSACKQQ
T20 sequence (Q7RTN6 whole entry partner): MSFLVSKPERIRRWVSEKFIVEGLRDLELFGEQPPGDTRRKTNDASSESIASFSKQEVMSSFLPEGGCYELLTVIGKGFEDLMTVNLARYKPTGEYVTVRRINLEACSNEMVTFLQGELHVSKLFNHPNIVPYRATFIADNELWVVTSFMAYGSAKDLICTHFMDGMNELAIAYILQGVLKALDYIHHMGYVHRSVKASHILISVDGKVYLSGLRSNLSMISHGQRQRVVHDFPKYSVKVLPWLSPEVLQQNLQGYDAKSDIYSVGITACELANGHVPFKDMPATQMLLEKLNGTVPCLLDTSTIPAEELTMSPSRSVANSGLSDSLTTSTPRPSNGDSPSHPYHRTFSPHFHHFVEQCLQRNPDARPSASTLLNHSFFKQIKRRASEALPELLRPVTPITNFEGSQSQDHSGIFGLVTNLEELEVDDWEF
T20 sequence (Q9Y376 whole entry partner): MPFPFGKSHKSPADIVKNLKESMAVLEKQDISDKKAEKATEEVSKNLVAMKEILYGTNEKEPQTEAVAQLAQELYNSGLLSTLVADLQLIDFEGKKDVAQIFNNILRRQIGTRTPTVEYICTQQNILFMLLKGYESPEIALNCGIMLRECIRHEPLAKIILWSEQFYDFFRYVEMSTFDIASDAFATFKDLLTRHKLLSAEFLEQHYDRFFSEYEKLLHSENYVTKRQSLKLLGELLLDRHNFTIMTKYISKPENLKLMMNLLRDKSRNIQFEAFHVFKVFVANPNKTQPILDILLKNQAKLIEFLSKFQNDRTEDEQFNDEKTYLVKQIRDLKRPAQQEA
T17 sequence (P06213 1005-1310 limits assumed): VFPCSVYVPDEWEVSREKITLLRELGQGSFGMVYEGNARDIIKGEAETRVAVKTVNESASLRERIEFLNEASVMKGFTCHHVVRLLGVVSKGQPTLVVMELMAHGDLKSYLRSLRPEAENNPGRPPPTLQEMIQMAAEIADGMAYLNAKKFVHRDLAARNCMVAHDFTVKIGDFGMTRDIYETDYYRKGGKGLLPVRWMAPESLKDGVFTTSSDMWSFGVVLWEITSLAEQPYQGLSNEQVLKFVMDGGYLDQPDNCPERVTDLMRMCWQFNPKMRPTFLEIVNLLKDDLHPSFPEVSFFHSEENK
T35 sequence (P42681 whole entry): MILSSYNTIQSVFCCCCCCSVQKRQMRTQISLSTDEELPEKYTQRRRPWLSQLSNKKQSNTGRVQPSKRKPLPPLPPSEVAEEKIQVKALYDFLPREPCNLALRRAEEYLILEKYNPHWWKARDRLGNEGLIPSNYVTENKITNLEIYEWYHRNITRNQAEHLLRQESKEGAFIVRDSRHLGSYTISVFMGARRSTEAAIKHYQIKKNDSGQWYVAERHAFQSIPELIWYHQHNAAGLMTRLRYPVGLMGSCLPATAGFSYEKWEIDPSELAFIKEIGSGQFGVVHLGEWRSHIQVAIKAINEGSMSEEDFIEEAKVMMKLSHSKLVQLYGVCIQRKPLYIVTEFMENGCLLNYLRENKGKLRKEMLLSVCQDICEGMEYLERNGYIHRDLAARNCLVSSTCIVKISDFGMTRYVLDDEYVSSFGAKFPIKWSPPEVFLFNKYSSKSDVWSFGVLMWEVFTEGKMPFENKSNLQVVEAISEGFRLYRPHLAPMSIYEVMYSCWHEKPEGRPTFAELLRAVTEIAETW

## COCCN1C[C@@H](NC(=O)Nc2c(C)c(-c3cnc(C)nc3)nn2-c2ccccc2)[C@H](c2cccc(F)c2)C1 [Compound 1, 1-((3S,4R)-4-(3-fluorophenyl)-1-(2-methoxyethyl)pyrrolidin-3-yl)-3-(4-methyl-3-(2-methylpyrimidin-5-yl)-1-phenyl-1H-pyrazol-5-yl)urea]
AKT3
  Avg POC: 113.5 POC
ALK4
  Avg POC: 106.5 POC
ARK5
  Avg POC: 104.5 POC
CAMK1
  Avg POC: 104.5 POC
CDK5/p35
  Avg POC: 97 POC
CK1_y
  Avg POC: 91.5 POC
CK1gamma2
  Avg POC: 61.5 POC
CK1gamma3
  Avg POC: 104.5 POC
DAPK3
  Avg POC: 105.5 POC
DMPK
  Avg POC: 98.5 POC
ERK2
  Avg POC: 100 POC
EphB2
  Avg POC: 98 POC
GRK5
  Avg POC: 100 POC
GSK3alpha
  Avg POC: 109.5 POC
HIPK2
  Avg POC: 101.5 POC
Hck
  Avg POC: 108.5 POC
IKKbeta
  Avg POC: 104.5 POC
IR Activated
  Avg POC: 105.5 POC
IRAK4
  Avg POC: 98 POC
KDR
  Avg POC: 102.5 POC
LKB1
  Avg POC: 104.5 POC
MAP4K2
  Avg POC: 101 POC
MST3
  Avg POC: 103.5 POC
PAK4
  Avg POC: 97 POC
PKCbetaI
  Avg POC: 102.5 POC
PKCeta
  Avg POC: 100 POC
Pim-3
  Avg POC: 106.5 POC
PrKX
  Avg POC: 115.5 POC
RIPK2
  Avg POC: 90.5 POC
Ret
  Avg POC: 111.5 POC
Rsk1
  Avg POC: 102 POC
Src
  Avg POC: 120 POC
TAK1-TAB1
  Avg POC: 101.5 POC
TBK1
  Avg POC: 114.5 POC
TLK2
  Avg POC: 101.5 POC
Txk
  Avg POC: 67 POC
ULK3
  Avg POC: 107.5 POC
VRK2
  Avg POC: 96 POC
WNK2
  Avg POC: 92.5 POC
mTOR/FKBP12
  Avg POC: 105.5 POC
p38gamma
  Avg POC: 114.5 POC
